Experimental data taken from patent EP0729956B1, “Benzothiophene compounds, intermediates, compositions, and methods” (ELI LILLY AND COMPANY, priority 1995, dated 1996).
pIC50: −log10 of the molar value. Counter-ions that a name gives are not always drawn. Like-named read-outs stand apart in the source and are kept apart here.

Experiments:
[1] = test system: ovariectomized rats; design: species or system Sprague Dawley rats; settings: rat, in vivo, po
Source text: (§1) Seventy-five day old female Sprague Dawley rats (weight range of 200 to 225g) were obtained from Charles River Laboratories (Portage, MI). The animals were either bilaterally ovariectomized (OVX) or exposed to a Sham surgical procedure at Charles River Laboratories, and then shipped after one week. Upon arrival, they were housed in metal hanging cages in groups of 3 or 4 per cage and had ad libitum access to food (calcium content approximately 0.5%) and water for one week. Room temperature was maintained at 22.2° ± 1.7° C with a minimum relative humidity of 40%. The photoperiod in the room was 12 hours light and 12 hours dark.
(§2) After a one week acclimation period (therefore, two weeks post-OVX) daily dosing with test compound was initiated. 17a-ethynyl estradiol or the test compound were given orally, unless otherwise stated, as a suspension in 1% carboxymethylcellulose or dissolved in 20% cyclodextrin. Animals were dosed daily for 4 days. Following the dosing regimen, animals were weighed and anesthetized with a ketamine: Xylazine (2:1, V:V) mixture and a blood sample was collected by cardiac puncture. The animals were then sacrificed by asphyxiation with CO2, the uterus was removed through a midline incision, and a wet uterine weight was determined.
Uteri were kept at 4° C until time of enzymatic analysis. The uteri were then homogenized in 50 volumes of 50 mM Tris buffer (pH - 8.0) containing 0.005% Triton X-100. Upon addition of 0.01% hydrogen peroxide and 10 mM O-phenylenediamine (final concentrations) in Tris buffer, increase in absorbance was monitored for one minute at 450 nm. The presence of eosonophils in the uterus is an indication of estrogenic activity of a compound. The maximal velocity of a 15 second interval was determined over the initial, linear portion of the reaction curve.

[2] = test system: ovariectomized rats; experiment: Serum cholesterol analysis (OVX rat, 4-day dosing); assay type: in vivo, Sprague Dawley rats; settings: Rattus norvegicus, po, 96 h, daily for 4 days, read-out: Serum Cholesterol (% decrease vs. OVX)
Source text: as §1, §2
Blood samples were allowed to clot at room temperature for 2 hours, and serum was obtained following centrifugation for 10 minutes at 3000 rpm. Serum cholesterol was determined using a Boehringer Mannheim Diagnostics high performance cholesterol assay. Briefly the cholesterol was oxidized to cholest-4-en-3-one and hydrogen peroxide. The hydrogen peroxide was then reacted with phenol and 4-aminophenazone in the presence of peroxidase to produce a p-quinone imine dye, which was read spectrophotemetrically at 500 nm. Cholesterol concentration was then calculated against a standard curve. The entire assay was automated using a Biomek Automated Workstation.

[3] = test system: MCF-7 breast adenocarcinoma cells; experiment: MCF-7 Proliferation Assay (tritiated thymidine); assay type: cell-based; settings: Homo sapiens, MCF7; MCF-7 cells, 48 hours with drug, tritiated thymidine pulse 4 hours
Method: MCF-7 breast adenocarcinoma cells (ATCC HTB 22) were maintained in MEM (minimal essential medium, phenol red-free, Sigma, St. Louis, MO) supplimented with 10% fetal bovine serum (FBS) (V/V), L-glutamine (2 mM), sodium pyruvate (1 mM), HEPES {(N-[2-hydroxyethyl]piperazine-N'-[2-ethanesulfonic acid]10 mM}, non-essential amino acids and bovine insulin (1 ug/mL) (maintenance medium). Ten days prior to assay, MCF-7 cells were switched to maintenance medium supplemented with 10% dextran coated charcoal stripped fetal bovine serum (DCC-FBS) assay medium) in place of 10% FBS to deplete internal stores of steroids. MCF-7 cells were removed from maintenance flasks using cell dissociation medium (Ca++/Mg++ free HBSS (phenol red-free) supplemented with 10 mM HEPES and 2 mM EDTA). Cells were washed twice with assay medium and adjusted to 80,000 cells/mL. Approximately […] (8,000 cells) were added to flat-bottom microculture wells (Costar 3596) and incubated at 37° C in a 5% CO2 humidified incubator for 48 hours to allow for cell adherence and equilibration after transfer. Serial dilutions of drugs or DMSO as a diluent control were prepared in assay medium and […] to triplicate microcultures followed by […] assay medium for a final volume of […]. After an additional 48 hours at 37° C in a 5% CO2 humidified incubator, microcultures were pulsed with tritiated thymidine (1 uCi/well) for 4 hours. Cultures were terminated by freezing at -70° C for 24 hours followed by thawing and harvesting of microcultures using a Skatron Semiautomatic Cell Harvester. Samples were counted by liquid scintillation using a Wallac BetaPlace b counter. Results in Table 4 below show the IC50 for certain compounds of the present invention.

[4] = test system: ovariectomized test animals; experiment: Osteoporosis Test Procedure (OVX rat, 35-day dosing, distal femur metaphysis X-ray image analysis); assay type: in vivo, Sprague Dawley rats; settings: OVX rats, daily for 35 days, mean ± SEM
Source text: as §1
Following the General Preparation Procedure, infra, the rats were treated daily for 35 days (6 rats per treatment group) and sacrificed by carbon dioxide asphyxiation on the 36th day. The 35 day time period was sufficient to allow maximal reduction in bone density, measured as described herein. At the time of sacrifice, the uteri were removed, dissected free of extraneous tissue, and the fluid contents were expelled before determination of wet weight in order to confirm estrogen deficiency associated with complete ovariectomy. […] The uteri were then placed in 10% neutral buffered formalin to allow for subsequent histological analysis.
The right femurs were excised and digitilized x-rays generated and analyzed by an image analysis program (NIH image) at the distal metaphysis. The proximal aspect of the tibiae from these animals were also scanned by quantitative computed tomography.
In accordance with the above procedures, compounds of the present invention and ethynyl estradiol (EE2) in 20% hydroxypropyl b-cyclodextrin were orally administered to test animals. Distal femur metaphysis data presented in Tables 2 and 3 below are the results of formula I compound treatments compared to intact and ovariectomized test animals. Results are reported as the mean ± the standard error of the mean.

| SMILES | Uterine EPO (V. max) ([1]; 0.01 mg/kg) | Uterine EPO (V. max) ([1]; 0.1 mg/kg) | Uterine EPO (V. max) ([1]; 1 mg/kg) | inhibition in vivo at 0.01 mg/kg [2] [%] | inhibition in vivo at 0.1 mg/kg [2] [%] | inhibition in vivo at 1 mg/kg [2] [%] | pIC50 [3] | Uterine EPO (V. max) ([1]; 10 mg/kg) | inhibition in vivo at 10 mg/kg [2] [%] | Distal Femur Metaphysis (X-ray Image Analysis-Gray Score) ([4]; Table 3, oral, dose 0.1 mg/kg, OVX control 6.2 ± 1.4, Sham 31.1 ± 6.3) | Distal Femur Metaphysis (X-ray Image Analysis-Gray Score) ([4]; Table 3, oral, dose 1.0 mg/kg, OVX control 6.2 ± 1.4, Sham 31.1 ± 6.3) | Distal Femur Metaphysis (X-ray Image Analysis-Gray Score) ([4]; Table 3, oral, dose 3.0 mg/kg, OVX control 6.2 ± 1.4, Sham 31.1 ± 6.3) | Distal Femur Metaphysis (X-ray Image Analysis-Gray Score) ([4]; Table 2, oral in 20% hydroxypropyl b-cyclodextrin, dose 0.1 mg/kg, OVX control 8.1 ± 1.8, Sham 27.2 ± 6.0) | Distal Femur Metaphysis (X-ray Image Analysis-Gray Score) ([4]; Table 2, oral, dose 1.0 mg/kg, OVX control 8.1 ± 1.8, Sham 27.2 ± 6.0) | Distal Femur Metaphysis (X-ray Image Analysis-Gray Score) ([4]; Table 2, oral, dose 10.0 mg/kg, OVX control 8.1 ± 1.8, Sham 27.2 ± 6.0) |
| --- | --- | --- | --- | --- | --- | --- | --- | --- | --- | --- | --- | --- | --- | --- | --- |
| Oc1ccc(-c2sc3ccccc3c2Oc2ccc(OCCN3CCCC3)cc2)cc1 [Example 3, [3-[4-[2-(1-pyrolidinyl)ethoxy]phenoxy]-2-(4-hydroxyphenyl)]benzo[b]thiophene] | 1.8 | 4.8 | 5.4 | 50.6 | 47.8 | 49.2 | 8.40 | – | – | – | – | – | – | – | – |
| COc1ccc(-c2sc3cc(OC)ccc3c2Oc2ccc(OCCN3CCCCC3)cc2)cc1 [Example 10, [6-methoxy-3-[4-[2-(1-piperidinyl)ethoxy]-phenoxy]-2-(4-methoxyphenyl)]benzo[b]thiophene] | – | 12.0 | 17.7 | – | 50.2 | 59 | 8.70 | 4.8 | 38.9 | 15.3 ± 3.0 | 15.2 ± 3.7 | 18.5 ± 3.2∗ | – | – | – |
| Oc1ccc(-c2sc3cc(O)ccc3c2Oc2ccc(OCCN3CCCCC3)cc2)cc1 [Example 19, [6-hydroxy-3-[4-[2-(1-piperidinyl)-ethoxy]phenoxy]-2-(4-hydroxyphenyl)]benzo[b]thiophene oxalate] | 2.1 | 2.4 | 3.6 | 25.1 | 45.3 | 53.6 | 10.55 | – | – | – | – | – | 14.7 ± 1.9 | 15.0 ± 3.5∗ | 15.3 ± 4.0∗ |
| Oc1ccc(-c2sc3cc(O)ccc3c2Oc2ccc(OCCN3CCCC3)cc2)cc1 [Example 21, [6-Hydroxy-3-[4-[2-(1-pyrolidinyl)ethoxy]phenoxy]-2-(4-hydroxyphenyl)]benzo[b]thiophene] | 1.2 | 4.8 | 9.3 | 26.8 | 47.5 | 54.4 | 10.30 | – | – | – | – | – | – | – | – |
| CCN(CC)CCOc1ccc(Oc2c(-c3ccc(O)cc3)sc3cc(O)ccc23)cc1 [Example 23, [6-Hydroxy-3-[4-[2-(1-N,N-diethylamino)ethoxy]phenoxy]-2-(4-hydroxyphenyl)]benzo[b]thiophene] | 3.3 | 84.3 | 150.6 | 36.2 | 47.2 | 66.1 | 10.10 | – | – | – | – | – | – | – | – |
| Oc1ccc(-c2sc3cc(O)ccc3c2Sc2ccc(OCCN3CCCCC3)cc2)cc1 [Example 53, [6-Hydroxy-3-[4-[2-(1-piperidinyl)ethoxy]-thiophenoxy]-2-(4-hydroxyphenyl)]benzo[b]thiophene] | – | 0.9 | 1.3 | – | 62.7 | 57.5 | 9.55 | 4.8 | 58.7 | – | – | – | – | – | – |
